In PMC5526998, “Structural analysis of the regulatory mechanism of MarR protein Rv2887 in M. tuberculosis” (Scientific Reports, 2017):

Target: Rv2887 (Mycobacterium tuberculosis, UniProt P9WME9)
Experiment: biochemical

Rv2887, sequence (P9WME9 whole entry): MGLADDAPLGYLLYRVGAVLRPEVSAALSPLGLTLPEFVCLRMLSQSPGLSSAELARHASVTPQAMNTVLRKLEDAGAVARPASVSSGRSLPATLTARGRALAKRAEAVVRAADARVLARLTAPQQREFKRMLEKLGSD

Cc1ccc(C)c(OCCCC(C)(C)C(=O)O)c1 [gemfibrozil]
Kd: 7.94 µM

Nc1ccc(C(=O)O)c(O)c1 [PAS]
Kd: 183 µM
